Measured values as given in ChEMBL document CHEMBL1201862, “PubChem BioAssay data set” (2004).
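How tested: cells in 96-well plates exposed to compound for 48 hours at five concentrations. GI50 marks 50% less growth.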 Active and inactive are the calls of the source. Cut-off read from the data, not from the text of the source: active = GI50 up to about 1.1 µM and inactive = higher.

Assays:
Assay in all cases: growth of human tumour cells (NCI), 48 h
BT-549 = test system: BT-549
DU-145 = test system: DU-145
HCC 2998 = test system: HCC 2998
HCT-116 = test system: HCT-116
HL-60 = test system: HL-60
HOP-92 = test system: HOP-92
LOX IMVI = test system: LOX IMVI
MCF7 = test system: MCF7
Malme-3M = test system: Malme-3M
NCI-H522 = test system: NCI-H522
NCI/ADR-RES = test system: NCI/ADR-RES
OVCAR-3 = test system: OVCAR-3
PC-3 = test system: PC-3
RPMI-8226 = test system: RPMI-8226
RXF 393 = test system: RXF 393
SF-295 = test system: SF-295
SK-OV-3 = test system: SK-OV-3
SN12C = test system: SN12C
T47D = test system: T47D
UACC-62 = test system: UACC-62

CCOC1OC(=O)c2cc3ccc4c(c3c(-c3ccc5c(c3)OCO5)c21)OCO4 (stereo not given)
GI50 (BT-549): 4.28 µM (inactive)
GI50 (DU-145): 70.5 µM (inactive)
GI50 (HCC 2998): 2.26 µM (inactive)
GI50 (HCT-116): 2.43 µM (inactive)
GI50 (HL-60): 9.91 µM (inactive)
GI50 (HOP-92): 96.8 µM (inactive)
GI50 (LOX IMVI): 3.79 µM (inactive)
GI50 (MCF7): 9.57 µM (inactive)
GI50 (Malme-3M): > 100 µM (inactive)
GI50 (NCI-H522): 0.687 µM (active)
GI50 (NCI/ADR-RES): 5.13 µM (inactive)
GI50 (OVCAR-3): 0.417 µM (active)
GI50 (PC-3): 10.1 µM (inactive)
GI50 (RPMI-8226): 4.12 µM (inactive)
GI50 (RXF 393): 5.79 µM (inactive)
GI50 (SF-295): 2.27 µM (inactive)
GI50 (SK-OV-3): 1.42 µM (inactive)
GI50 (SN12C): 10.9 µM (inactive)
GI50 (T47D): 9.79 µM (inactive)
GI50 (UACC-62): 6.01 µM (inactive)

N#Cc1ccccc1OCCOc1ccccc1C#N
GI50 (BT-549): > 100 µM (inactive)
GI50 (DU-145): > 100 µM (inactive)
GI50 (HCC 2998): > 100 µM (inactive)
GI50 (HCT-116): > 100 µM (inactive)
GI50 (HL-60): > 100 µM (inactive)
GI50 (HOP-92): > 100 µM (inactive)
GI50 (LOX IMVI): > 100 µM (inactive)
GI50 (MCF7): > 100 µM (inactive)
GI50 (Malme-3M): > 100 µM (inactive)
GI50 (NCI-H522): > 100 µM (inactive)
GI50 (NCI/ADR-RES): > 100 µM (inactive)
GI50 (OVCAR-3): > 100 µM (inactive)
GI50 (PC-3): > 100 µM (inactive)
GI50 (RPMI-8226): > 100 µM (inactive)
GI50 (RXF 393): > 100 µM (inactive)
GI50 (SF-295): > 100 µM (inactive)
GI50 (SK-OV-3): > 100 µM (inactive)
GI50 (SN12C): > 100 µM (inactive)
GI50 (T47D): > 100 µM (inactive)
GI50 (UACC-62): > 100 µM (inactive)

CN(C)CCNc1nc2ccccc2c2c1C(=O)c1ccccc1-2
GI50 (BT-549): 0.914 µM (active)
GI50 (DU-145): 0.149 µM (active)
GI50 (HCC 2998): 0.134 µM (active)
GI50 (HCT-116): 0.049 µM (active)
GI50 (HL-60): < 0.0432 µM (active)
GI50 (HOP-92): 0.327 µM (active)
GI50 (LOX IMVI): 0.147 µM (active)
GI50 (MCF7): 0.0508 µM (active)
GI50 (Malme-3M): 0.251 µM (active)
GI50 (NCI-H522): 0.211 µM (active)
GI50 (NCI/ADR-RES): 0.267 µM (active)
GI50 (OVCAR-3): 0.556 µM (active)
GI50 (PC-3): 0.27 µM (active)
GI50 (RPMI-8226): 0.123 µM (active)
GI50 (RXF 393): 0.18 µM (active)
GI50 (SF-295): 0.225 µM (active)
GI50 (SK-OV-3): 0.703 µM (active)
GI50 (SN12C): 0.0565 µM (active)
GI50 (T47D): 0.281 µM (active)
GI50 (UACC-62): 0.0849 µM (active)

CC1=NN(C(=O)CC(=O)Nc2ccc(C)cc2)C(=O)C1/N=N\c1ccc(S(=O)(=O)c2ccc(/N=N/C3C(=O)N(C(=O)CC(=O)Nc4ccc(C)cc4)N=C3C)cc2)cc1 (stereo not given)
GI50 (BT-549): > 100 µM (inactive)
GI50 (DU-145): > 100 µM (inactive)
GI50 (HCC 2998): 83.6 µM (inactive)
GI50 (HCT-116): 43.4 µM (inactive)
GI50 (HL-60): 16.4 µM (inactive)
GI50 (HOP-92): > 100 µM (inactive)
GI50 (LOX IMVI): 16.2 µM (inactive)
GI50 (MCF7): > 100 µM (inactive)
GI50 (Malme-3M): 67 µM (inactive)
GI50 (NCI-H522): 23.3 µM (inactive)
GI50 (NCI/ADR-RES): > 100 µM (inactive)
GI50 (OVCAR-3): 64.6 µM (inactive)
GI50 (PC-3): 72.4 µM (inactive)
GI50 (RPMI-8226): 82.4 µM (inactive)
GI50 (RXF 393): > 100 µM (inactive)
GI50 (SF-295): > 100 µM (inactive)
GI50 (SK-OV-3): 72.4 µM (inactive)
GI50 (SN12C): 50.1 µM (inactive)
GI50 (T47D): > 100 µM (inactive)
GI50 (UACC-62): 65.9 µM (inactive)

CS(=O)(=O)CS(=O)(=O)OCCCl
GI50 (BT-549): 99.5 µM (inactive)
GI50 (DU-145): 199 µM (inactive)
GI50 (HCC 2998): 301 µM (inactive)
GI50 (HCT-116): 166 µM (inactive)
GI50 (HL-60): 136 µM (inactive)
GI50 (HOP-92): 119 µM (inactive)
GI50 (LOX IMVI): 37.8 µM (inactive)
GI50 (MCF7): 229 µM (inactive)
GI50 (Malme-3M): 356 µM (inactive)
GI50 (NCI-H522): 206 µM (inactive)
GI50 (NCI/ADR-RES): 324 µM (inactive)
GI50 (OVCAR-3): 264 µM (inactive)
GI50 (PC-3): 348 µM (inactive)
GI50 (RPMI-8226): 198 µM (inactive)
GI50 (RXF 393): 163 µM (inactive)
GI50 (SF-295): 60.8 µM (inactive)
GI50 (SK-OV-3): 167 µM (inactive)
GI50 (SN12C): 188 µM (inactive)
GI50 (T47D): 218 µM (inactive)
GI50 (UACC-62): 29.5 µM (inactive)

CN(CC(=O)O)CC(=O)O
GI50 (BT-549): > 100 µM (inactive)
GI50 (DU-145): > 100 µM (inactive)
GI50 (HCC 2998): > 100 µM (inactive)
GI50 (HCT-116): > 100 µM (inactive)
GI50 (HL-60): > 100 µM (inactive)
GI50 (HOP-92): > 100 µM (inactive)
GI50 (LOX IMVI): > 100 µM (inactive)
GI50 (MCF7): > 100 µM (inactive)
GI50 (Malme-3M): > 100 µM (inactive)
GI50 (NCI-H522): > 100 µM (inactive)
GI50 (NCI/ADR-RES): > 100 µM (inactive)
GI50 (OVCAR-3): > 100 µM (inactive)
GI50 (PC-3): > 100 µM (inactive)
GI50 (RPMI-8226): > 100 µM (inactive)
GI50 (RXF 393): > 100 µM (inactive)
GI50 (SF-295): > 100 µM (inactive)
GI50 (SK-OV-3): > 100 µM (inactive)
GI50 (SN12C): > 100 µM (inactive)
GI50 (T47D): > 100 µM (inactive)
GI50 (UACC-62): > 100 µM (inactive)

O=C(Nc1cccc2cnccc12)c1cc2c(cc1Cl)Sc1nccn1S2(=O)=O
GI50 (BT-549): 10.4 µM (inactive)
GI50 (DU-145): 13.6 µM (inactive)
GI50 (HCC 2998): 15.7 µM (inactive)
GI50 (HCT-116): 4.74 µM (inactive)
GI50 (HL-60): 4.62 µM (inactive)
GI50 (HOP-92): 21.4 µM (inactive)
GI50 (LOX IMVI): 5.65 µM (inactive)
GI50 (MCF7): 5.36 µM (inactive)
GI50 (Malme-3M): 19.1 µM (inactive)
GI50 (NCI-H522): 13.1 µM (inactive)
GI50 (NCI/ADR-RES): 14.4 µM (inactive)
GI50 (OVCAR-3): 19.9 µM (inactive)
GI50 (PC-3): 23.3 µM (inactive)
GI50 (RPMI-8226): 6.11 µM (inactive)
GI50 (RXF 393): 8.2 µM (inactive)
GI50 (SF-295): 15.4 µM (inactive)
GI50 (SK-OV-3): 40 µM (inactive)
GI50 (SN12C): 14.4 µM (inactive)
GI50 (T47D): 6 µM (inactive)
GI50 (UACC-62): 12.4 µM (inactive)

CSC1=NC(=O)CCN1C1OCC(OC(C)=O)C(OC(C)=O)C1OC(C)=O (stereo not given)
GI50 (BT-549): 15.1 µM (inactive)
GI50 (DU-145): 19.9 µM (inactive)
GI50 (HCC 2998): 21.8 µM (inactive)
GI50 (HCT-116): 5.45 µM (inactive)
GI50 (HL-60): 2.99 µM (inactive)
GI50 (HOP-92): 14.8 µM (inactive)
GI50 (LOX IMVI): > 10 µM (inactive)
GI50 (MCF7): 63.8 µM (inactive)
GI50 (Malme-3M): 14.3 µM (inactive)
GI50 (NCI-H522): 18.2 µM (inactive)
GI50 (NCI/ADR-RES): 15.8 µM (inactive)
GI50 (OVCAR-3): 12.6 µM (inactive)
GI50 (PC-3): 15 µM (inactive)
GI50 (RPMI-8226): 6.9 µM (inactive)
GI50 (RXF 393): 15.8 µM (inactive)
GI50 (SF-295): 20.1 µM (inactive)
GI50 (SK-OV-3): 15.2 µM (inactive)
GI50 (SN12C): 20.7 µM (inactive)
GI50 (T47D): 16.8 µM (inactive)
GI50 (UACC-62): 40.6 µM (inactive)

Brc1ccccc1/C=N\C12CC3CC(CC(C3)C1)C2
GI50 (BT-549): > 100 µM (inactive)
GI50 (DU-145): > 100 µM (inactive)
GI50 (HCC 2998): > 100 µM (inactive)
GI50 (HCT-116): 1.85 µM (inactive)
GI50 (HL-60): 0.879 µM (active)
GI50 (HOP-92): 84.7 µM (inactive)
GI50 (LOX IMVI): 19.9 µM (inactive)
GI50 (MCF7): 7.24 µM (inactive)
GI50 (Malme-3M): > 67.9 µM (inactive)
GI50 (NCI-H522): > 100 µM (inactive)
GI50 (NCI/ADR-RES): > 100 µM (inactive)
GI50 (OVCAR-3): 23.8 µM (inactive)
GI50 (PC-3): 43.2 µM (inactive)
GI50 (RPMI-8226): 3.31 µM (inactive)
GI50 (RXF 393): 97.9 µM (inactive)
GI50 (SF-295): 63.8 µM (inactive)
GI50 (SK-OV-3): > 100 µM (inactive)
GI50 (SN12C): > 63.1 µM (inactive)
GI50 (T47D): > 100 µM (inactive)
GI50 (UACC-62): 12 µM (inactive)

OCc1cccc(Nc2nc(O)c3[nH]cnc3n2)c1
GI50 (BT-549): > 100 µM (inactive)
GI50 (DU-145): > 100 µM (inactive)
GI50 (HCC 2998): > 100 µM (inactive)
GI50 (HCT-116): > 100 µM (inactive)
GI50 (HL-60): > 100 µM (inactive)
GI50 (HOP-92): > 100 µM (inactive)
GI50 (LOX IMVI): > 100 µM (inactive)
GI50 (MCF7): > 100 µM (inactive)
GI50 (Malme-3M): > 100 µM (inactive)
GI50 (NCI-H522): > 100 µM (inactive)
GI50 (NCI/ADR-RES): > 100 µM (inactive)
GI50 (OVCAR-3): > 100 µM (inactive)
GI50 (PC-3): > 100 µM (inactive)
GI50 (RPMI-8226): > 100 µM (inactive)
GI50 (RXF 393): > 100 µM (inactive)
GI50 (SF-295): > 100 µM (inactive)
GI50 (SK-OV-3): > 100 µM (inactive)
GI50 (SN12C): > 100 µM (inactive)
GI50 (T47D): > 100 µM (inactive)
GI50 (UACC-62): > 100 µM (inactive)
